Test results published in the supplement of paper PMC10307832.

Experiments:
Assay in all cases: relative viability (nuclei count vs DMSO), 5 days (fraction); higher = more cells survive
CAL-12T = test system: CAL-12T
Outline: (§1)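 The day after seeding in 1536-well plates, lung cancer cell lines were treated by pin tool with a single drug, or with a fixed anchor-drug dose together with five library-drug doses (not always all listed) in √10 steps. After 5 days, a combined fix-and-stain solution (final 0.05% Triton X-100, 1% formaldehyde, 1 ug/ml Hoechst) was added. Nuclei counted on 4× images gave relative viability as treated counts over vehicle counts, reported as the median of duplicate plates.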

EKVX = test system: EKVX
Outline: as §1

H3255 = test system: H3255
Outline: as §1

HCC-15 = test system: HCC-15
Outline: as §1

HCC-827 = test system: HCC-827
Outline: as §1

LCLC-97TM1 = test system: LCLC-97TM1
Outline: as §1

LK-2 = test system: LK-2
Outline: as §1

NCI-H1355 = test system: NCI-H1355
Outline: as §1

NCI-H1563 = test system: NCI-H1563
Outline: as §1

NCI-H1650 = test system: NCI-H1650
Outline: as §1

NCI-H1734 = test system: NCI-H1734
Outline: as §1

NCI-H1755 = test system: NCI-H1755
Outline: as §1

NCI-H1975 = test system: NCI-H1975
Outline: as §1

NCI-H2228 = test system: NCI-H2228
Outline: as §1

NCI-H2342 = test system: NCI-H2342
Outline: as §1

NCI-H2405 = test system: NCI-H2405
Outline: as §1

NCI-H322M = test system: NCI-H322M
Outline: as §1

NCI-H520 = test system: NCI-H520
Outline: as §1

NCI-H661 = test system: NCI-H661
Outline: as §1

PC-14 = test system: PC-14
Outline: as §1

PC-3 [JPC-3] = test system: PC-3 [JPC-3]
Outline: as §1

RERF-LC-KJ = test system: RERF-LC-KJ
Outline: as §1

CCN(CC)CCCCNc1ncc2cc(-c3cc(OC)cc(OC)c3)c(NC(=O)NC(C)(C)C)nc2n1 + CCNC(=O)c1noc(-c2cc(C(C)C)c(O)cc2O)c1-c1ccc(CN2CCOCC2)cc1 [Luminespib] (partner 0.01 µM)
relative viability (CAL-12T; first compound 0.01 µM): 0.63 | relative viability (CAL-12T; first compound 0.03162 µM): 0.338 | relative viability (CAL-12T; first compound 0.1 µM): 0.363 | relative viability (CAL-12T; first compound 0.3162 µM): 0.445 | relative viability (CAL-12T; first compound 1 µM): 0.347 | relative viability (EKVX; first compound 0.01 µM): 0.842 | relative viability (EKVX; first compound 0.03162 µM): 0.909 | relative viability (EKVX; first compound 0.1 µM): 0.934 | relative viability (EKVX; first compound 0.3162 µM): 0.971 | relative viability (EKVX; first compound 1 µM): 0.83 | relative viability (H3255; first compound 0.01 µM): 0.73 | relative viability (H3255; first compound 0.03162 µM): 0.824 | relative viability (H3255; first compound 0.1 µM): 0.915 | relative viability (H3255; first compound 0.3162 µM): 0.992 | relative viability (H3255; first compound 1 µM): 0.833 | relative viability (HCC-15; first compound 0.01 µM): 0.251 | relative viability (HCC-15; first compound 0.03162 µM): 0.257 | relative viability (HCC-15; first compound 0.1 µM): 0.348 | relative viability (HCC-15; first compound 0.3162 µM): 0.422 | relative viability (HCC-15; first compound 1 µM): 0.266 | relative viability (HCC-827; first compound 0.01 µM): 0.675 | relative viability (HCC-827; first compound 0.03162 µM): 0.891 | relative viability (HCC-827; first compound 0.1 µM): 0.77 | relative viability (HCC-827; first compound 0.3162 µM): 0.774 | relative viability (HCC-827; first compound 1 µM): 0.587 | relative viability (LCLC-97TM1; first compound 0.01 µM): 0.743 | relative viability (LCLC-97TM1; first compound 0.03162 µM): 0.867 | relative viability (LCLC-97TM1; first compound 0.1 µM): 1.02 | relative viability (LCLC-97TM1; first compound 0.3162 µM): 0.818 | relative viability (LCLC-97TM1; first compound 1 µM): 0.775 | relative viability (LK-2; first compound 0.01 µM): 0.153 | relative viability (LK-2; first compound 0.03162 µM): 0.207 | relative viability (LK-2; first compound 0.1 µM): 0.202 | relative viability (LK-2; first compound 0.3162 µM): 0.183 | relative viability (LK-2; first compound 1 µM): 0.184 | relative viability (NCI-H1355; first compound 0.01 µM): 0.795 | relative viability (NCI-H1355; first compound 0.03162 µM): 0.824 | relative viability (NCI-H1355; first compound 0.1 µM): 0.704 | relative viability (NCI-H1355; first compound 0.3162 µM): 0.738 | relative viability (NCI-H1355; first compound 1 µM): 0.649 | relative viability (NCI-H1563; first compound 0.01 µM): 0.537 | relative viability (NCI-H1563; first compound 0.03162 µM): 0.532 | relative viability (NCI-H1563; first compound 0.1 µM): 0.549 | relative viability (NCI-H1563; first compound 0.3162 µM): 0.597 | relative viability (NCI-H1563; first compound 1 µM): 0.545 | relative viability (NCI-H1650; first compound 0.01 µM): 0.227 | relative viability (NCI-H1650; first compound 0.03162 µM): 0.214 | relative viability (NCI-H1650; first compound 0.1 µM): 0.204 | relative viability (NCI-H1650; first compound 0.3162 µM): 0.206 | relative viability (NCI-H1650; first compound 1 µM): 0.203 | relative viability (NCI-H1734; first compound 0.01 µM): 0.0982 | relative viability (NCI-H1734; first compound 0.03162 µM): 0.189 | relative viability (NCI-H1734; first compound 0.1 µM): 0.19 | relative viability (NCI-H1734; first compound 0.3162 µM): 0.197 | relative viability (NCI-H1734; first compound 1 µM): 0.178 | relative viability (NCI-H1755; first compound 0.01 µM): 0.455 | relative viability (NCI-H1755; first compound 0.03162 µM): 0.694 | relative viability (NCI-H1755; first compound 0.1 µM): 0.458 | relative viability (NCI-H1755; first compound 0.3162 µM): 0.606 | relative viability (NCI-H1755; first compound 1 µM): 0.44 | relative viability (NCI-H1975; first compound 0.01 µM): 0.161 | relative viability (NCI-H1975; first compound 0.03162 µM): 0.148 | relative viability (NCI-H1975; first compound 0.1 µM): 0.201 | relative viability (NCI-H1975; first compound 0.3162 µM): 0.366 | relative viability (NCI-H1975; first compound 1 µM): 0.199 | relative viability (NCI-H2228; first compound 0.01 µM): 0.131 | relative viability (NCI-H2228; first compound 0.03162 µM): 0.109 | relative viability (NCI-H2228; first compound 0.1 µM): 0.173 | relative viability (NCI-H2228; first compound 0.3162 µM): 0.247 | relative viability (NCI-H2228; first compound 1 µM): 0.142 | relative viability (NCI-H2342; first compound 0.01 µM): 0.775 | relative viability (NCI-H2342; first compound 0.03162 µM): 0.833 | relative viability (NCI-H2342; first compound 0.1 µM): 0.768 | relative viability (NCI-H2342; first compound 0.3162 µM): 0.633 | relative viability (NCI-H2342; first compound 1 µM): 0.811 | relative viability (NCI-H2405; first compound 0.01 µM): 0.649 | relative viability (NCI-H2405; first compound 0.03162 µM): 0.644 | relative viability (NCI-H2405; first compound 0.1 µM): 0.76 | relative viability (NCI-H2405; first compound 0.3162 µM): 0.654 | relative viability (NCI-H2405; first compound 1 µM): 0.684 | relative viability (NCI-H322M; first compound 0.01 µM): 0.884 | relative viability (NCI-H322M; first compound 0.03162 µM): 0.854 | relative viability (NCI-H322M; first compound 0.1 µM): 0.859 | relative viability (NCI-H322M; first compound 0.3162 µM): 0.988 | relative viability (NCI-H322M; first compound 1 µM): 0.799 | relative viability (NCI-H520; first compound 0.01 µM): 0.203 | relative viability (NCI-H520; first compound 0.03162 µM): 0.228 | relative viability (NCI-H520; first compound 0.1 µM): 0.229 | relative viability (NCI-H520; first compound 0.3162 µM): 0.289 | relative viability (NCI-H520; first compound 1 µM): 0.207 | relative viability (NCI-H661; first compound 0.01 µM): 0.922 | relative viability (NCI-H661; first compound 0.03162 µM): 0.964 | relative viability (NCI-H661; first compound 0.1 µM): 0.968 | relative viability (NCI-H661; first compound 0.3162 µM): 0.982 | relative viability (NCI-H661; first compound 1 µM): 0.925 | relative viability (PC-14; first compound 0.01 µM): 0.138 | relative viability (PC-14; first compound 0.03162 µM): 0.126 | relative viability (PC-14; first compound 0.1 µM): 0.176 | relative viability (PC-14; first compound 0.3162 µM): 0.141 | relative viability (PC-14; first compound 1 µM): 0.138 | relative viability (PC-3 [JPC-3]; first compound 0.01 µM): 0.814 | relative viability (PC-3 [JPC-3]; first compound 0.03162 µM): 0.738 | relative viability (PC-3 [JPC-3]; first compound 0.1 µM): 0.725 | relative viability (PC-3 [JPC-3]; first compound 0.3162 µM): 0.746 | relative viability (PC-3 [JPC-3]; first compound 1 µM): 0.662 | relative viability (RERF-LC-KJ; first compound 0.01 µM): 1.24 | relative viability (RERF-LC-KJ; first compound 0.03162 µM): 1.21 | relative viability (RERF-LC-KJ; first compound 0.1 µM): 1.84 | relative viability (RERF-LC-KJ; first compound 0.3162 µM): 1.35 | relative viability (RERF-LC-KJ; first compound 1 µM): 1.27
